Here are results for nine compounds from patent publication US20180008587A1, “THIOHYDANTOIN ANDROGEN RECEPTOR ANTAGONISTS FOR THE TREATMENT OF CANCER” (Jaressen Pharmaceutica NV, priority 2016, published 2018).

What all share (assay type): cell-based
Assay [1] addresses T1, wild-type Androgen Receptor (AR-wt) (Homo sapiens, UniProt P10275).
T1 construct: expressed in transfected cells; host or cells: LNCaP (LNCaP AR (cs))
T1 sequence (P10275 1-920): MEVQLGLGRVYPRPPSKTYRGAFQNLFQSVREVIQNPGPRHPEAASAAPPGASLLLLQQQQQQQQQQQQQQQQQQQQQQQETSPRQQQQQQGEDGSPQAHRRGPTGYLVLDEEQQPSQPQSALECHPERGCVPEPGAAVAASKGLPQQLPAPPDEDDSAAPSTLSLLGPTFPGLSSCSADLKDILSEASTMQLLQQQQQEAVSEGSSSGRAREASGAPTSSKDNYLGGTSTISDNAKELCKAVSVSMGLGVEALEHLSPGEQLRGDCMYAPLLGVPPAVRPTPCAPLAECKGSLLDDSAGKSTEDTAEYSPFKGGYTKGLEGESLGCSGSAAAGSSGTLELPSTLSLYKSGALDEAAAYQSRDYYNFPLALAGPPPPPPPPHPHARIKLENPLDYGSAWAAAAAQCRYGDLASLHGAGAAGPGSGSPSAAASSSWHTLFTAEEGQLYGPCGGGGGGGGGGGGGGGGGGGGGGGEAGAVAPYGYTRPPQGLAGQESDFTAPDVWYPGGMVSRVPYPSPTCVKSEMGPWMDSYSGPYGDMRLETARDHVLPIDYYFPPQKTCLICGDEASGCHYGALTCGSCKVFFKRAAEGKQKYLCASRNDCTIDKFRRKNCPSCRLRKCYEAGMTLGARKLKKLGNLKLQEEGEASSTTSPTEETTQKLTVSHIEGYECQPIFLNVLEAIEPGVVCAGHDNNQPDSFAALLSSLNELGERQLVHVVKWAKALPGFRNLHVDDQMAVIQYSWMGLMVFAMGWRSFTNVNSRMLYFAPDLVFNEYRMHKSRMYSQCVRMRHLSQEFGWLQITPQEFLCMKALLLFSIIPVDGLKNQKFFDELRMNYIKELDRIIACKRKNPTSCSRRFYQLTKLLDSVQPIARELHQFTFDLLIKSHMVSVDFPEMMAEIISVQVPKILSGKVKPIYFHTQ
Kind of assay: LNCaP-AR-wt ANT reporter assay (ARE firefly luciferase, antagonist mode). The note with it: for IC50: antagonist mode, 400 pM R-1881 challenge, −Log10(IC50 [Molar]), read-out: LNCaP-AR-wt ANT pIC50 (converted); for Emax: read-out: LNCaP-AR-wt ANT MAX % Inh. Here is the method: (§1) A stable pooled-population cell line was generated using puromycin (Life Technologies) selection at 1:10,000 v/v. The protocol below was used for both cell lines and for testing of the compounds of Formula (I) of the present invention.
(§2) LNCaP cells were grown to about 80% confluence, media removed and cells rinsed in Hank's balanced salt solution prior to separation from the plate with 0.05% Trypsin EDTA. Cells were lifted and trypsin negated in complete CSS (charcoal stripped serum) culture media. […] Agonist challenge was at 400 pM for WT assay and 600 pM for F876L assay. Plates containing cells and compounds herein were incubated for a further 20-24 hours at 37° C., 5% CO2 before addition of 40 μL/well of Steady-Glo Luciferase Assay System Reagent (Promega# E2520). After 1 h, plates were read for luminescence on a BMG Pherastar.
(§3) EC/IC50 calculations were achieved utilizing calculated RLU data and data fitting macros. Data were fit using least-squares methods to the following formula: […]
(In general: In a reporter assay the amount or activity of a reporter protein is the signal.)

The target in assay [2] is T2, F876L mutant Androgen Receptor (AR-F876L) (Homo sapiens, UniProt P10275, F877L).
T2 construct: expressed in transfected cells; host or cells: LNCaP (LNCaP F876L)
T2 sequence (P10275 1-920 F877L): T1 sequence (P10275 1-920) with F877L
Kind of assay: LNCaP-AR-F876L ANT reporter assay (ARE firefly luciferase, antagonist mode). The note with it: for Emax: read-out: LNCaP-AR-F876L ANT MAX % Inh; for IC50: read-out: LNCaP-AR-F876L ANT pIC50 (converted). Here is the method:
as §1, §2, §3

For assay [3], the target named is T1, wild-type Androgen Receptor (AR-wt). Put plainly: LNCaP-AR-wt AG reporter assay (ARE firefly luciferase, agonist mode). The note with it: for Emax: read-out: LNCaP-AR-wt AG MAX % Stim. How it is done:
as §1, §2, §3

The target of assay [4] is T2, F876L mutant Androgen Receptor (AR-F876L). Put plainly: LNCaP-AR-F876L AG reporter assay (ARE firefly luciferase, agonist mode). The settings on record: for Emax: read-out: LNCaP-AR-F876L AG MAX % Stim. Here is the method: as §1, §2, §3
[5] abbreviates: maximum % inhibition of R1881 control response over tested concentration range.
Where [6] appears, read: agonist mode, −Log10(EC50 [Molar]), read-out: LNCaP-AR-wt AG pEC50 (converted).
Setting [7] is: maximum % stimulation (agonist response) over tested concentration range.
[8] abbreviates: agonist mode, −Log10(EC50 [Molar]), read-out: LNCaP-AR-F876L AG pEC50 (converted).

Residue numbers refer to the chain shown, from its start. Read-outs that look alike come from different tables or passages of the source.

Take `N#Cc1ncc(N2C(=O)C3(CCC3)N(c3cccc(F)c3)C2=S)cc1C(F)(F)F` [Cpd 90, 5-[8-(3-fluorophenyl)-5-oxo-7-thioxo-6,8-diazaspiro[3.4]octan-6-yl]-3-(trifluoromethyl)pyridine-2-carbonitrile]: the IC50 in assay [1] was 513 nM; in assay [2], 631 nM. Further, the Emax in assay [1] (setting [5]) was 100%; in assay [2] (setting [5]) it was 98.6%; in assay [3] (setting [7]) it was 0.5%; in assay [4] (setting [7]) it was 1.4%. In addition, the EC50 in assay [3] (setting [6]) and in assay [4] (setting [8]) was above 15.1 µM throughout.
Take `Cc1cc(N2C(=O)C3(CCC3)N(c3ccc(C(=O)Nc4nccs4)c(F)c3)C2=S)cnc1C#N` [Cpd 63, 4-[6-(6-cyano-5-methyl-3-pyridyl)-5-oxo-7-thioxo-6,8-diazaspiro[3.4]octan-8-yl]-2-fluoro-N-thiazol-2-yl-benzamide]: the results for the IC50 in assay [1] and in assay [2] were 776 nM and 219 nM, respectively. Besides, the Emax in assay [1] worked out at 68.6%; in assay [2], 83.4%; in assay [3], 0.7%; in assay [4], 0.3%. Also, the EC50 in assay [3] and in assay [4] was above 15.1 µM in each case.
In the case of `CCN1CCC(Oc2ccc(N3C(=S)N(c4cnc(C#N)c(C)c4)C(=O)C34CCC4)cc2)CC1` [Cpd 61, 5-[8-[4-[(1-ethyl-4-piperidyl)oxy]phenyl]-5-oxo-7-thioxo-6,8-diazaspiro[3.4]octan-6-yl]-3-methyl-pyridine-2-carbonitrile], the IC50 in assay [1] is 1260 nM; in assay [2], 380 nM. For the same compound, the Emax was 100% in assay [1] (setting [5]), 100% in assay [2] (setting [5]), 1.1% in assay [3] (setting [7]) and 0.7% in assay [4] (setting [7]). In addition, the EC50 in assay [3] (setting [6]) and in assay [4] (setting [8]) was above 15.1 µM in each case.
With `CN1CCC(Oc2ccc(N3C(=S)N(c4cnc(C#N)c(C(F)(F)F)c4)C(=O)C34CCC4)c(F)c2)CC1` [Cpd 49, 5-[8-[2-fluoro-4-[(1-methyl-4-piperidyl)oxy]phenyl]-5-oxo-7-thioxo-6,8-diazaspiro[3.4]octan-6-yl]-3-(trifluoromethyl)pyridine-2-carbonitrile], the results for the IC50 in assay [1] and in assay [2] were 501 nM and 257 nM, respectively. The Emax in assay [1] (setting [5]) was found to be 101%; in assay [2] (setting [5]) it was 96.5%; in assay [3] (setting [7]), 0.6%; in assay [4] (setting [7]), 0.5%. The EC50 in assay [3] (setting [6]) and in assay [4] (setting [8]) was above 15.1 µM in each case.
On to `COCCCNC(=O)c1ccc(N2C(=S)N(c3cnc(C#N)c(C(F)(F)F)c3)C(=O)C23CCC3)cc1F` [Cpd 24, 4-[6-[6-cyano-5-(trifluoromethyl)-3-pyridyl]-5-oxo-7-thioxo-6,8-diazaspiro[3.4]octan-8-yl]-2-fluoro-N-(3-methoxypropyl)benzamide], for which the IC50 in assay [1] is 331 nM; in assay [2], 229 nM. The Emax in assay [1] (setting [5]) stood at 100%; in assay [2] (setting [5]) it was 99.5%; in assay [3] (setting [7]), 0%; in assay [4] (setting [7]), 0.1%. Further, the EC50 in assay [3] (setting [6]) and in assay [4] (setting [8]) was above 15.1 µM in each case.
As to `N#Cc1ncc(N2C(=O)C3(CCC3)N(c3ccc(C(=O)NCc4cnccn4)c(F)c3)C2=S)cc1C(F)(F)F` [Cpd 54, 4-[6-[6-cyano-5-(trifluoromethyl)-3-pyridyl]-5-oxo-7-thioxo-6,8-diazaspiro[3.4]octan-8-yl]-2-fluoro-N-(pyrazin-2-ylmethyl)benzamide], the IC50 in assay [1] is 380 nM; in assay [2] it was 219 nM. The Emax is 101% in assay [1] (setting [5]), 98.9% in assay [2] (setting [5]), 0.1% in assay [3] (setting [7]) and 0.5% in assay [4] (setting [7]). Besides, the EC50 in assay [3] (setting [6]) and in assay [4] (setting [8]) was above 15.1 µM in each case.
Turning to `N#Cc1ncc(N2C(=O)C3(CCC3)N(c3ccc(OCCN4CCCCC4)cc3F)C2=S)cc1C(F)(F)F` [Cpd 91, 5-[8-[2-fluoro-4-[2-(1-piperidyl)ethoxy]phenyl]-5-oxo-7-thioxo-6,8-diazaspiro[3.4]octan-6-yl]-3-(trifluoromethyl)pyridine-2-carbonitrile], the IC50 in assay [1] was 537 nM; in assay [2] it was 302 nM. The Emax in assay [1] (setting [5]) came out at 98.5%; in assay [2] (setting [5]), 98.6%; in assay [3] (setting [7]), 1.1%; in assay [4] (setting [7]) it was 1.4%. Besides, the EC50 in assay [3] (setting [6]) and in assay [4] (setting [8]) was above 15.1 µM each time.
`Cc1cc(N2C(=O)C3(CCC3)N(c3ccc(OC4CCOCC4)cc3)C2=S)cnc1C#N` [Cpd 87, 3-methyl-5-[5-oxo-8-(4-tetrahydropyran-4-yloxyphenyl)-7-thioxo-6,8-diazaspiro[3.4]octan-6-yl]pyridine-2-carbonitrile]: in assay [2], the Emax was determined as 99.7% and the IC50 is 288 nM. Also, in assay [3], the EC50 is above 15.1 µM and the Emax was 1.1%. Also, in assay [4], the EC50 is above 15.1 µM and the Emax came out at 0.9%.
As to `N#Cc1ncc(N2C(=O)C3(CCC3)N(c3ccc(C(=O)NCCc4ccccc4)c(F)c3)C2=S)cc1C(F)(F)F` [Cpd 42, 4-[6-[6-cyano-5-(trifluoromethyl)-3-pyridyl]-5-oxo-7-thioxo-6,8-diazaspiro[3.4]octan-8-yl]-2-fluoro-N-phenethyl-benzamide], the IC50 in assay [1] was 245 nM. Besides, the Emax in assay [1] (setting [5]) amounted to 100%; in assay [3] (setting [7]), 0.3%; in assay [4] (setting [7]) it was 0%. In addition, the EC50 in assay [3] (setting [6]) and in assay [4] (setting [8]) was above 15.1 µM throughout.
